Data: US9119884B2, “LLP2A-bisphosphonate conjugates for osteoporosis treatment” (The Regents of the University of California, priority 2010, dated 2015)
“Also recorded” adds a separate entry of the source.

What was measured:
[1] = system: C57BL/6 mice; experiment: Guiding GFP-labeled mouse MSCs to bone; format: in vivo; settings: for osteocalcin levels: 0.9 nmol/mouse I.P. one hour after GFP-MSC I.V.
Experimental: LLP2A-Ale or LLP2A-Ale (1) were dissolved in 0.9% normal saline and injected I.P. to the mice one hour after MSC at a final solution of 0.9 nmol/mouse. Mice were sacrificed either at 3 days or 3 weeks. Osteocalcin, a bone formation marker, was measured at both 3 days and 3 weeks post-treatments. The lumbar vertebral bodies from the 3-day treatment groups were frozen and sectioned with cryostat. The sections were then stained with anti-GFP antibody. The transplanted MSCs were stained in brown.

[2] = system: NOD/SCID/MPSVII mice; experiment: huMSC transplantation with LLP2A-Ale in immunodeficient mice; format: in vivo, mouse
Description: Human MSCs (huMSCs) were obtained and injected together with LLP2A-Ale to immunodeficient mice, NOD/SCID/mucopolysaccharidosis type VII (MPSVII). This mouse strain lacked the β-glucuronidase (GUSB) enzyme. The donor cells could be easily detected using biochemical detection of β-glucuronidase (See Meyerrose, T. E., et al., Stem Cells, 2007. 25(1): p. 220-7; Meyerrose, T. E., et al., Stem Cells, 2008. 26(7): p. 1713-22). At three-month of age, the mice received a single intravenous (i.v.) injection of either vehicle (100 μl PBS/mouse), huMSCs (5×10^5/100 μl/PBS/mouse), huMSCs+LLP2A (5 nM/mouse) or huMSCs+LLP2A-Ale (500 ng/mouse; total compound weight 3.5 μg, with alendronate concentration of 500 ng/mouse). The alendronate dose we used for the study was approximately one-fifth of the therapeutic dose for the treatment of osteoporosis (See Colon-Emeric, C. S., JAMA, 2006, 296(24): p. 2968-9; Ma, Y. L., et al., Endocrinology, 2003. 144(5): p. 2008-15). […] HuMSC, as shown by GUSB+red stain, were only present at the trabecular bone surface in the LLP2A-Ale-treated group (lower panel). There was no demonstrable GUSB activity in the lung, liver, kidney and LVB that received PBS (top panels) or huMSCs (middle panel). Cancellous bone mass in the vertebral body was—more than 40% higher in the group treated with MSC+LLP2A-Ale (cancellous bone volume, BV/TV 13.9±2.2%) compared to PBS (BV/TV 9.4±1.7%), MSC (BV/TV 10.2±1.9%) or MSC+LLP2A (BV/TV 10.5±0.5%) controls three weeks after a single injection of huMSC and LLP2A-Ale.
In FIG. 8, Three-month-old MSPVII mice received a single intravenous injection of either of PBS, huMSC (5×10^5) or huMSC+LLP2A or LLP2A-Ale. The mice were sacrificed 24 hours later. Following sacrifice, small portions of organ including lumbar vertebral bodies (LVB) were harvested and frozen in Optimal Cutting Temperature embedding media. The sections were stained using naphthol-AS-BI-β-Dglucuronide (GUSB) as a substrate. Representative sections from lung, liver, kidney and lumbar vertebral (LVB) trabecular bone regions were presented. […] Isolated GUSB-positive cells were also observed within bone marrow of the LVB in […] group.
The NOD-SCID MPSVII strain was the result of extensive backcrossing of the mutant GUSB allele from the B6.C-H-2^bm1/ByBirgus^mps/+ mouse onto the NOD/LtSz-scid background. Animals were bred and maintained at the Stem Cell Department of the UC Davis Medical Center under approved animal care protocols. Affected animals were generated by breeding mice heterozygous for the MPSVII mutation. Homozygous GUSB-deficient pups were identified at birth by biochemical analysis of toe tissue.
Serum levels of the amino terminal propeptide of type 1 procollagen (P1NP), osteocalcin and C-terminal telopeptides of type I collagen (CTX-I) were measured using mouse sandwich ELISA kits from Biomedical Technologies (Stroughton, Mass.) or Immunodiagnostic System (Fountain Hills, Ariz.). The manufacturer's protocols were followed and all samples were assayed in duplicate. A standard curve was generated from each kit and the absolute concentrations were extrapolated from the standard curve. The coefficients of variations (CVs) for inter-assay and intra-assay measurements were less than 10% for all assays and are similar to the manufacturer's references (Yao, W., et al., Arthritis Rheum, 2008, 58(6): p. 1674-86; Yao, W., et al., Arthritis Rheum, 2008, 58(11): p. 3485-3497).
After fixation in 4% paraformaldehyde, the right distal femurs, mid-femurs and the 5th lumbar vertebral bodies were dehydrated in graded concentrations of ethanol and xylene and embedded un-decalcified in methyl methacrylate. The frontal sections (8 μm thick) were cut using a vertical bed microtome (Leica/Jung 2265) and affixed to slides coated with a 2% gelatin solution. Unstained 8-μm-thick sections were used for assessing fluorochrome labeling and dynamic changes in bone. […]

[3] = system: 129SvJ mice; format: in vivo, mouse
[4] = system: C57BL/6 mice; experiment: Age-related trabecular bone loss after peak bone acquisition; format: in vivo, mouse
Description: FIGS. 18A and B show LLP2A-Ale increases bone formation parameters at the trabecular DF (P<0.05) in C57BL/6 mice.

[5] = 5th lumbar vertebral body, three weeks, co-injected with huMSC
[6] = serum, three weeks, co-injected with huMSC
[7] = three weeks following huMSCs transplantation

## Cc1ccccc1NC(=O)Nc1ccc(CC(=O)N[C@@H](CCCCNC(=O)/C=C/c2cccnc2)C(=O)N[C@@H](CCCC(=O)O)C(=O)NC2(C(=O)NCCOCCOCCNC(=O)CCC(=O)NCCOCCOCCNC(=O)CCC(=O)N[C@@H](CCCCNC(=O)[C@H](N)CSC3CC(=O)N(CC4CCC(C(=O)NCCCC(O)(P(=O)(O)O)P(=O)(O)O)CC4)C3=O)C(N)=O)CCCCC2)cc1 (stereo partly drawn) [LLP2A-Ale, LLP2A-Alendronate]
[1]; lumbar vertebral bodies, three days
  location of transplanted MSCs (anti-GFP staining): observed within bone marrow and adjacent to the trabecular bone surfaces
[1]; three days
  osteocalcin levels: significantly increased
[1]; three weeks
  osteocalcin levels: significantly increased
[2]; 3 weeks following co-injection with GFP-labeled huMSCs
  osteoblasts and osteocytes at cortical and trabecular bone regions in LVB: increased
[2]; [5]
  mineral apposition rate: significant increases
  osteoblast surface: significant increases
  surface-based bone formation rate (BFR/BS): significant increases
[2]; 24 hours after single i.v. injection of huMSCs with compound
  huMSCs (GUSB+) on/adjacent to bone surface: greatly increased; also recorded: Significant amount; also recorded: seen accumulated in bone marrow, adjacent to both trabecular and periosteal bone surfaces
[2]; mid-femur, three weeks, co-injected with huMSC
  intra-cortical bone remodeling: markedly increased
[2]; [6]
  osteocalcin: significant increases
  procollagen 1 N-terminal propeptide (P1NP): significant increases
[2]; three weeks after single injection of huMSC and compound, vs PBS, MSC, MSC+LLP2A
  cancellous bone mass in the vertebral body, higher compared to controls: more than 40%
[2]; three weeks after transplantation, co-injected with huMSCs
  huMSCs (GUSB+) adjacent to/retained in bone: only seen adjacent to the bone surface; also recorded: retention of the transplanted huMSCs in bone
[2]; [7]
  cortical bone formation: increases
  trabecular bone formation: increases
[2]; three weeks, co-injected with huMSC
  bone formation rates at endocortical and periosteal surfaces of the mid-femur, increase: 50-100%
[2]; vertebral body, three weeks after single injection of huMSC with or without compound
  cancellous bone volume, BV/TV: 13.9±2.2%
[3]; 10 ng vs 250 ng/mouse
  dose-response at the cortical bone compartment: no dose-responses
[3]; distal femur metaphysis
  mineral apposition rate: significant increases
  osteoblast surface: significant increases; also recorded: increased
  surface-based bone formation rate: significant increases
[3]; distal femur microCT, four weeks, two dose levels, vs PBS
  trabecular thickness: increased
[3]; distal femur microCT, four weeks, LLP2A-Ale at higher dose level (250 ng)
  increase in cancellous bone mass from baseline: ~20%
[3]; mouse, in vivo
  bridges between adjacent trabeculae: formed bridges between adjacent trabeculae
[3]; serum
  early osteoblast maturation (P1NP levels): did not change
  osteoblast function (osteocalcin): increased
[3]; through increasing the thickness of the trabeculae
  cancellous bone mass: increases
[3]; two days after i.v. injection, lumbar vertebral sections
  proliferating cell populations (BrdU): increased these proliferating cell populations adjacent to bone surface; also recorded: increases
[3]; young normal mice
  cancellous bone formation: increases
  cortical bone formation: increases
[4]; P<0.05
  bone formation parameters at the trabecular DF: increases
[4]; mouse, in vivo
  age-related trabecular bone (loss) after peak bone acquisition: prevents
  bone formation parameters at trabecular bone surfaces in the lumbar vertebral bodies (LVB): increases
